Tests used:
[1] = system: ROS; assay: ROS staining (H2DCFDA) in C. elegans; assay type: in vivo; settings: worms fed erfK mutant E. coli
Protocol: ROS measurements in C. elegans: The ROS staining protocol was modified from. Briefly, L4 stage animals were collected and washed three times with M9 buffer to remove the bacteria. Then the worms were transferred into the staining solution (H2DCFDA, 50 uM in M9 buffer) and incubated for 30 min at 20° C. After washing twice with M9 buffer, worms were subjected to microscopic examination.

[2] = system: SOD-3::GFP; assay: SOD-3::GFP oxidative stress reporter in worms; assay type: in vivo, C. elegans; settings: worms fed erfK mutant E. coli
Protocol: (§1) C. elegans strains and maintenance: C. elegans strains were grown and maintained on nematode growth media (NGM) plates seeded with the Escherichia coli strain OP50 at 20° C. The following strains were obtained from Caenorhabditis Genetics Center (CGC): N2 Bristol (wild-type control strain), SJ4100: zcIs13 [Phsp-6::gfp] V, SJ4058: zcIs9 [Phsp-60::gfp+lin-15 (+)/V, SJ4197: zcIs39 [Pdve-1::dve-1::gfp] II, SJ4005: zcIs4 [Phsp-4::gfp] V, TJ375: gpIs1 [Phsp-16.2::gfp], AY101: acIs101 [PF35E12.5::gfp+rol-6(su1006)], AU133: agIs17 [Pmyo-2::mCherry+Pirg-1::gfp] IV, CF1553: muIs84 [(pAD76) sod-3p::GFP+rol-6(su1006)]. mai-2 (xm19) was obtained from Dr. R. E. Navarro (Universidad Nacional Autonoma de Mexico).
Chemical supplementation: The NAC (Fisher Scientific, ICN10009825) stock solution (500 mM) was made in ddH2O. For NAC supplementation, NAC solution was added in NGM agar to the final concentration of 50 mM. For iron supplementation, FeCl3 (Sigma, 236489) was dissolved in ddH2O to generate solutions of desired concentration (2 mM, 8 mM and 20 mM). […]
(§2) Microscopy: Analysis of fluorescence was performed under Nomarski optics on a Zeisis Axioplan2 microscope with a Zeiss AxioCam MRm CCD camera. […]
(§3) Quantification and Statistical analysis: ImageJ software was used for quantifying fluorescence intensity of various of reporters. […]

[3] = system: C. elegans; assay: Developmental rate (growth delay) of worms fed PG mutant E. coli with supplementation; assay type: in vivo; settings: supplement added
Protocol: E. coli Keio collection screen: Bacterial peptidoglycan (PG) metabolism-related genes were determined based on the published papers (Table 1) and the PG mutant sub-library was assembled from the Keio E. coli single mutant collection. Mutant bacteria strains, as well as the wild-type control strain BW25113, were cultured overnight in LB medium with 50 μg/ml kanamycin in 96-well plates at 37° C. 100 μl of the overnight E. coli cultures were spotted onto 6 cm NGM plates and dried at room temperature for 1h before use. About 200 synchronized L1 worms were then placed on the seeded NGM plates and cultured at 20° C. Animals were screened after 54-56 hours. Worm developmental rates were determined by vulval development as previously described. To quantify the developmental rate, about 50 animals were scored under Nomarski microscope. To verify the genotypes of the 4 candidate Keio mutants, PCR were performed on each mutant colony and the control BW25113 strain using specific downstream genomic primers together with kanamycin-cassette-specific primers. […]
as §3

[4] = system: C. elegans; assay: Food avoidance behavior assay; assay type: in vivo; settings: worms fed PG mutant E. coli, supplement added
Protocol: Food avoidance behavior assay: Food avoidance behavior assay was determined using a method adapted from a published procedure (Kniazeva et al., 2015; Melo and Ruvkun, 2012). Briefly, overnight cultures of wild type and PG mutant E. coli were adjusted to the same OD600 and 20 μl of each culture was seeded on the center of 6 cm NGM plates. The seeded plates were dried at room temperature for 1 hour before use. About 100 synchronized L1 animals were then dropped onto the bacterial lawns and cultured for 45 hours at 20° C. The avoidance index was determined by Noff/on/Ntotal. Each assay was conducted in triplicate.
Heat-killed E. coli preparation and supplementation: We followed an established protocol to prepare heat-killed (HK) E. coli: standard overnight bacterial cultures were concentrated to 1/10 vol and were then heated in a 75° C. water bath for 90 min. For HK-E. coli supplementation, live E. coli and HK-E. coli were mixed at a 1:1 ratio then 20 μl (avoidance behavior assay) or 50 μl (other assays) mixtures were dropped on the NGM plates and dried at room temperature for 10 min before use. About 100-200 synchronized L1 animals were placed on the bacterial lawn to grow at 20° C.
PG isolation, enzyme treatment and supplementation assays: An adapted method was used to isolate peptidoglycan from bacterial cultures. […]

[5] = system: Phsp-6::gfp; assay: Mt stress/UPRmt reporter (Phsp-6::gfp) in worms; assay type: in vivo, C. elegans; settings: worms fed PG mutant E. coli, supplement added
Protocol: as §1
PG isolation, enzyme treatment and supplementation assays: An adapted method was used to isolate peptidoglycan from bacterial cultures. In brief, bacterial pellets were resuspended in 1/10 vol 1M NaCl solution and boiled at 100° C. in a heating block for 1 h. […]
as §2, §3

Compound | ROS level (H2DCFDA staining) [1] | increase in SOD-3 level (SOD-3::GFP) [2] | growth delay (developmental delay) [3] | food avoidance behavior [4] | Mt stress (Phsp-6::gfp) [5]
CC(=O)N[C@@H](CS)C(=O)O [NAC, N-acetyl-L-cysteine] | suppressed | eliminated | significantly suppressed | significantly suppressed | significantly suppressed
[Cl][Fe]([Cl])[Cl] [iron, FeCl3] | – | – | could not suppress | – | could not suppress
